Assay results reported in patent US9701644B2, “Salt of nitrogen-containing heterocyclic compound or crystal thereof, pharmaceutical composition, and FLT3 inhibitor” (FUJIFILM Corporation, priority 2013, dated 2017).
Converted amounts (≈) assume the structure as drawn. Counter-ions that a name gives are not always drawn.

How the values were obtained:
Solubility test in water = type: physicochemical; details: room temperature, stirred 24 hours
Method: The compounds of Examples 1 and 3 were chosen as test compounds.
The compound A was chosen as a comparative compound.
The test compounds and the comparative compound were each added to water, and each mixture was stirred at room temperature for 24 hours. The insoluble matter was removed by filtration using a membrane filter (0.2 μm). The filtrate was analyzed by HPLC to obtain solubility.

MOLM-13 cells = experiment: Leukemic cell growth inhibition test (MOLM-13); type: cell-based; details: MOLM-13, 72 hours culture, CellTiter-Glo
Method: (§1) A leukemic cell growth inhibition test was performed by using the leukemic cell strains MV4-11 (ATCC Number, CRL-9591) and MOLM-13 (DSMZ Number, ACC554).
(§2) The leukemic cell growth inhibition test was performed by the method described below.
(§3) For the purpose of measuring growth inhibition with a test compound, the total cell count was quantified on the basis of the total cellular ATP concentration using the CellTitet-Glo (PerkinElmer) reagent that enables quantification of ATP concentration based on the luciferin-luciferase reaction. The MOLM-13 or MV4-11 cells were added to the RPMI medium containing penicillin (100 units/mL), streptomycin (100 μg/mL), and 10% FBS at a density of 2×10^5 cells/ml, and 50 μL (10,000 cells) of the mixture was inoculated to each well of a 96-well plate (Corning).
(§4) A serially diluted solution of a test compound or 0.1% DMSO (solvent control) in a volume of 50 μL was added to the cells, and then the cells were cultured for 72 hours under the standard cell proliferation conditions (37° C., 5% CO2) to allow proliferation of the cells. In order to measure the total cell proliferation, equal volume of the CellTitet-Glo reaction mixture was added to each well in accordance with the instructions attached to CellTitet-Glo, and luminescence count was quantified (relative light unit, RLU).
(§5) The RLU signal observed for the DMSO solvent control after 72 hours of culture was defined as a signal indicating 0% inhibition, and the GI50 value for the growth inhibition corresponds to a concentration of a compound that provides 50% inhibition of the total cell proliferation observed in the DMSO solvent control. Each data point was obtained from samples prepared in duplicate. The GI50 values were calculated by the non-linear regression fitting (Fit Model (205)) according to a sigmoid dose-reaction equation using the XLfit software.

MV4-11 cells = experiment: Leukemic cell growth inhibition test (MV4-11); type: cell-based; details: MV4-11, 72 hours culture, CellTiter-Glo
Method: as §1, §2, §3, §4, §5

[1] = Storage stability test (2), double plastic bag, 4 weeks; type: physicochemical
Method: (§6) The purities are represented in terms of area % measured by high performance liquid chromatography (HPLC). The HPLC measurement was performed by using Prominence (Shimadzu) under the following conditions.
The crystals of the compound of Example 1 were chosen as test substance.
(§7) The test substance (200 mg) was put into double plastic bag, and the opening was tied up. The bag was stored for 4 weeks under the storage condition 1 (25° C., 75% relative humidity), or the storage condition 2 (40° C., 75% relative humidity). Purity and moisture content of the test substance were measured before the start of the test and after the end of the test.

[2] = Storage stability test (1), open glass bottle, 2 weeks; type: physicochemical; details: for storage stability / Moisture content / Purity: open glass bottle; for storage stability / change of the purity and moisture content after storage: in words; for change of the purity and moisture content after storage: storage over 2 weeks
Method: as §6
Crystals of the compounds of Examples 1 and 3 were chosen as test substances.
as §7, with “Each test” for “The test”, “into a glass bottle of an open state,” for “into double plastic bag,”, “and” for “and the opening was tied up. The bag was”, “for 2” for “for 4”

[3] = storage condition 1 (25° C., 75% relative humidity), 4 weeks
[4] = storage condition 2 (40° C., 75% relative humidity), 4 weeks
[5] = storage condition 1 (25° C., 75% relative humidity), 2 weeks
[6] = storage condition 2 (40° C., 75% relative humidity), 2 weeks

Solubility (Solubility test in water) [mg/mL]	GI50 (MOLM-13 cells; Homo sapiens, MOLM-13, 72 h) [nM]	GI50 (MV4-11 cells; Homo sapiens, MV4-11, 72 h) [nM]	Moisture content ([1]; before start of test) [%]	Purity ([1]; before start of test) [%]	Moisture content [1, 3] [%]	Purity [1, 3] [%]	Moisture content [1, 4] [%]	Purity [1, 4] [%]	storage stability ([2]; 2 weeks)	Moisture content ([2]; before start of test) [%]	Purity ([2]; before start of test) [%]	Moisture content [2, 5] [%]	Purity [2, 5] [%]	Moisture content [2, 6] [%]	Purity [2, 6] [%]	change of the purity and moisture content after storage [2]	GI50 (MOLM-13 cells) [nM]	GI50 (MV4-11 cells) [nM]	SMILES
0.02 (≈ 37.7 µM)																			CCCNc1nc(Nc2ccc(C#N)cc2)ncc1C#CCCCNC(=O)[C@H](C)N(C)C(=O)/C=C/CN(C)C [Compound A, (S,E)-N-(1-((5-(2-((4-cyanophenyl)amino)-4-(propylamino)pyrimidin-5-yl)pent-4-yn-1-yl)amino)-1-oxopropan-2-yl)-4-(dimethylamino)-N-methylbut-2-enamide]
70.0	1.47	0.52	0.2	99.4	0.2	99.4	0.2	99.4	superior	0.5	99.6	0.2	99.6	0.2	99.6	little change			CCCNc1nc(Nc2ccc(C#N)cc2)ncc1C#CCCCNC(=O)[C@H](C)N(C)C(=O)/C=C/CN(C)C [Example 1, succinate of the compound A]
										1.7	99.7	3.2	99.6	2.1	99.6		1.5	0.6	CCCNc1nc(Nc2ccc(C#N)cc2)ncc1C#CCCCNC(=O)[C@H](C)N(C)C(=O)/C=C/CN(C)C [Example 2, succinate of the compound A]
0.89									superior							little change	1.6	0.6	CCCNc1nc(Nc2ccc(C#N)cc2)ncc1C#CCCCNC(=O)[C@H](C)N(C)C(=O)/C=C/CN(C)C [Example 3, fumarate of the compound A]
